Source: ChEMBL document CHEMBL1255173, “Dihydro-resveratrol--a potent dietary polyphenol” (Bioorg Med Chem Lett, 2010)
Calls of active or inactive are those of the source. The calls are words filed in the database; no cut-off is given here.

What was measured:
Type in all cases: functional, cell-based
MDA-MB-231 = assay: Cytotoxicity against human MDA-MB-231 cells after 48 hrs by MTT assay
K562 = assay: Cytotoxicity against human K562 cells after 48 hrs by MTT assay; details: K562, 48 h
BT-474 = assay: Cytotoxicity against human BT474 cells after 48 hrs by MTT assay
MCF7 = assay: Cytotoxicity against human MCF7 cells after 48 hrs by MTT assay; details: MCF7, 48 h

| SMILES | Activity (MDA-MB-231) | IC50 (K562) | Activity (BT-474) | IC50 (MCF7) |
| --- | --- | --- | --- | --- |
| Oc1ccc(CCc2cc(O)cc(O)c2)cc1 [DIHYDRORESVERATROL] | inactive | < 1000 nM | inactive | – |
| O=c1c(-c2ccc(O)cc2)coc2cc(O)cc(O)c12 [GENISTEIN] | – | – | – | 1000 nM |
